Test [1] relates to R0 conformation of the human PTHR1. To be noted: cited from earlier work.
The target of a further test is T1, hPTHR1 (Homo sapiens, UniProt Q03431).
T1 sequence (Q03431 27-593): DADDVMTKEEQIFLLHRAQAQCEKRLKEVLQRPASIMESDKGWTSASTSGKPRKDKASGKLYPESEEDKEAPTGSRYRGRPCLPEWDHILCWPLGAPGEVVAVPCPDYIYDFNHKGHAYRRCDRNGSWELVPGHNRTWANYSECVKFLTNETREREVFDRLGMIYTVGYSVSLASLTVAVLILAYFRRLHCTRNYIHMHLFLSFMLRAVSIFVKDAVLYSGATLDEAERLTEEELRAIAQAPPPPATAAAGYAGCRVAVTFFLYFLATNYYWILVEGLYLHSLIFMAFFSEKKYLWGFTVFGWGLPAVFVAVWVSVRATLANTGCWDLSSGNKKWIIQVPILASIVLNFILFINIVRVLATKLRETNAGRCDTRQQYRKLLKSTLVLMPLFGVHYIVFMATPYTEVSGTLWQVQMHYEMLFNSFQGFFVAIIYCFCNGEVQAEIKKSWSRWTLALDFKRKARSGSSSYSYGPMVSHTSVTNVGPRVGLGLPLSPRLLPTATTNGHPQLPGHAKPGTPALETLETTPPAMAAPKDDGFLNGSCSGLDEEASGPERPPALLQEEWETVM
The experiment in a line: cAMP induction. In kind it is cell-based. To be noted: Table 1; ratio of cAMP EC50 values, hPTHR1, GP2.3 cells.

The next test concerns CD1 mice. Conditions: subcutaneous injection; cited from earlier work.

For the substance M-PTH(1-34) [Peptide 27], the “binding to the R0 state of PTHR1, rank in words, earlier studies” value in test [1] was “binds even more tightly than does 1”. For the same substance, the “Derivative EC50/PTH(1-34) EC50” value on hPTHR1 is 4.2. The “duration of calcemic effect in mice, earlier studies” value in the test on CD1 mice is “long-lasting calcemic effect”.

Values taken from article PMC6016400 (Journal of medicinal chemistry, 2017).
